According to US20200345862A1, “TRANSITION METAL-BASED FUNCTIONAL MOIETIES FOR PREPARING CELL TARGETING CONJUGATES” (priority 2017, published 2020):
Read-outs that look alike come from different tables or passages of the source.

Conditions: HEPES pH 8.1, 47° C., 4 h
Experimental: To a mixture of water (101 μL) and 200 mM HEPES buffer (12.3 μL, pH 8.1) containing different concentrations of halide salts (0, 100, 500, 1000, and 2000 mM NaCl (for 4a; pH 8.1; the final concentrations of NaCl in the reaction mixtures were 0, 10, 50, 100, and 200 mM, respectively) or 0, 100, and 500 mM NaBr (for 5d; pH 8.1; the final concentrations of NaBr in the reaction mixtures were 0, 10, and 50 mM, respectively) or 0 and 100 mM NaI (for 6k; pH 8.1; the final concentrations of NaI in the reaction mixtures were 0 and 10 mM, respectively), [PtL2((Fe)DFO-suc-pip)(ethane-1,2-diamine)]^+ TFA^− (4a (L2=Cl), 5d (L2=Br) or 6k (L2=I)) (10.0 μL, 5 mM in 20 mM NaCl (4a) or 5 mM in water (5d and 6k), 5.0 eq.) was added. The samples were incubated in a thermoshaker at 47° C. for 1 h, 2 h, and 4 h, followed by the HPLC analysis at 430 nm.

Substance: [(Fe)DFO-pip-PtBr(ethane-1,2-diamine)]^+ TFA^− [5d]
- concentration of the semi-final product after incubation (stability) ([NaBr]=50 mM, FIG. 5): 95%

Substance: [Pt((Fe)DFO-suc-pip)(ethane-1,2-diamine)I]^+ TFA^− [6k]
- concentration of the semi-final product after incubation (stability) ([NaI]=10 mM, FIG. 6): 98%
